SMILES strings stand for the structures. Several values for one entry are separate records, joined by “and”; a condition that tells them apart may be missing. Equal entries are not always repeated.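 Values below derive from 48-hour exposures of cells grown in 96-well plates, with endpoints linearly interpolated between the two concentrations bracketing the appropriate inhibition level. GI50 = concentration required for 50% inhibition of growth. TGI: total growth inhibition.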

Among the test systems are RPMI-8226 leukemia; SW-620 colon; OVCAR-3 ovarian; DU-145 prostate; SK-MEL-28 melanoma; UACC-62 melanoma; BT-549 breast; MDA-MB-435; EKVX NSCLC; HOP-62 NSCLC.
Experiment in all cases: DTP human tumour cell line panel, 48 h

Turning to `COc1ccc2c(Cc3c4ccccc4cc4ccccc34)cncc2c1O`, the TGI – broadly, the concentration at which net growth stops – with RPMI-8226 leukemia is 17 µM; with SW-620 colon it was more than 100 µM; in the test with OVCAR-3 ovarian it was 8.97 µM; in the test with DU-145 prostate it was more than 22.4 µM; in the test on SK-MEL-28 melanoma, 72.3 µM; in the test with UACC-62 melanoma it was more than 44.2 µM. The TGI with BT-549 breast came out at 53.1 µM; with MDA-MB-435, 0.622 µM; in the test on EKVX NSCLC, 50.1 µM; in the test with HOP-62 NSCLC, 22.4 µM.
Turning to `c1ccc(CN2CCC3(CC2)SSC2(CCN(Cc4ccccc4)CC2)SS3)cc1`, the TGI with RPMI-8226 leukemia, in the test with SW-620 colon, in the test on OVCAR-3 ovarian, with DU-145 prostate, in the test with SK-MEL-28 melanoma and in the test with UACC-62 melanoma was more than 100 µM in each case. In addition, the TGI in the test on BT-549 breast is more than 100 µM; with MDA-MB-435, more than 100 µM; in the test with EKVX NSCLC it was 62 µM; with HOP-62 NSCLC it was more than 100 µM.
On to `C/C(=N\NC(=S)N1CCN(C2CCCCCC2)CC1)c1ccccn1`, for which the GI50 (as a rule, the concentration giving 50% growth inhibition) is less than 0.001 µM in the test on RPMI-8226 leukemia; 0.407 µM with SW-620 colon; 4.08 µM in the test on SK-MEL-28 melanoma; 0.0198 µM and < 0.0156 µM in the test on HOP-62 NSCLC. For the same compound, the TGI in the test with SW-620 colon was 3.83 µM and 1.91 µM; in the test on OVCAR-3 ovarian, 1.74 µM; in the test on DU-145 prostate it was 2.44 µM; in the test with SK-MEL-28 melanoma, 2.25 µM; in the test on UACC-62 melanoma it was 1.95 µM; in the test with BT-549 breast, 2.78 µM. For the same compound, the TGI in the test on MDA-MB-435 turned out to be 2 µM; in the test on EKVX NSCLC, 2.86 µM; in the test with HOP-62 NSCLC, 1.41 µM.
`CC[C@@H](C(=O)[C@H](C)[C@H](O)[C@@H](C)[C@H]1O[C@H]([C@@H](CC)C(=O)O)CC[C@H]1C)C1O[C@]2(C=C[C@@H](O)[C@]3(CC[C@@](C)([C@H]4CC[C@](O)(CC)[C@H](C)O4)O3)O2)[C@H](C)C[C@@H]1C` (some centres not stated): the GI50 in the test with RPMI-8226 leukemia was 0.171 µM; in the test on SW-620 colon it was 0.966 µM; in the test on OVCAR-3 ovarian, 0.0842 µM; with DU-145 prostate it was 1.06 µM; with SK-MEL-28 melanoma it was 0.84 µM; with UACC-62 melanoma it was 1.05 µM. The GI50 is 0.239 µM with BT-549 breast, 1.08 µM in the test on MDA-MB-435, 0.362 µM in the test on EKVX NSCLC and 0.532 µM with HOP-62 NSCLC. For the same compound, the TGI with RPMI-8226 leukemia stood at 3.07 µM; in the test on SW-620 colon, 10.7 µM; with OVCAR-3 ovarian, 18.8 µM; with DU-145 prostate it was 29.3 µM; in the test with SK-MEL-28 melanoma, 2.09 µM; with UACC-62 melanoma it was 2.28 µM. Also, the TGI worked out at 8.63 µM in the test on BT-549 breast, 2.56 µM in the test on MDA-MB-435, 17.5 µM in the test with EKVX NSCLC and 21.6 µM in the test on HOP-62 NSCLC.
With `O=C1CCCCC=C1C[N+](=O)[O-]`, the GI50 in the test with RPMI-8226 leukemia is 25.5 µM; in the test on SW-620 colon, 5.9 µM; in the test with OVCAR-3 ovarian, 23.9 µM; in the test on DU-145 prostate it was 27.3 µM; in the test on SK-MEL-28 melanoma, 28.5 µM; with UACC-62 melanoma, 18.7 µM. Also, the GI50 in the test on BT-549 breast was 26 µM; in the test with MDA-MB-435, 20.6 µM; in the test on EKVX NSCLC, 34.5 µM; in the test with HOP-62 NSCLC, 15.1 µM. Moreover, the TGI in the test with RPMI-8226 leukemia turned out to be 58.5 µM; in the test on SW-620 colon, 26.1 µM; in the test on OVCAR-3 ovarian it was 69.1 µM; in the test on DU-145 prostate, 96.3 µM; with SK-MEL-28 melanoma, 92 µM; with UACC-62 melanoma, 34.6 µM. The TGI was 61.4 µM in the test with BT-549 breast, 41.2 µM in the test on MDA-MB-435, more than 100 µM in the test with EKVX NSCLC and 45.6 µM with HOP-62 NSCLC.
As for `Nc1nc2c(nnn2C2OC(CO)C(O)C2O)c(=O)[nH]1` (configuration not stated), the GI50 in the test with RPMI-8226 leukemia was 2.76 µM; with SW-620 colon, 1.18 µM; in the test with OVCAR-3 ovarian, 1.17 µM; in the test with DU-145 prostate, 0.371 µM; in the test with SK-MEL-28 melanoma, 16.9 µM; in the test on UACC-62 melanoma, 1.14 µM. Further, the GI50 in the test with BT-549 breast is 2.41 µM; in the test on MDA-MB-435, 2.11 µM; with EKVX NSCLC, 14.1 µM; in the test on HOP-62 NSCLC, 3.2 µM. Moreover, the total growth inhibition concentration (TGI) in the test on RPMI-8226 leukemia was more than 100 µM; with SW-620 colon, more than 100 µM; with OVCAR-3 ovarian it was 10.7 µM; in the test on DU-145 prostate, more than 78.8 µM; in the test on SK-MEL-28 melanoma, more than 100 µM; in the test on UACC-62 melanoma, 12.9 µM. Besides, the TGI is more than 26.3 µM with BT-549 breast, more than 100 µM in the test with MDA-MB-435, more than 100 µM in the test with EKVX NSCLC and more than 100 µM in the test on HOP-62 NSCLC.
`O=C(c1ccco1)c1c(C(F)(F)F)nc2ccc(C(F)(F)F)cc2[n+]1[O-]`: the GI50 in the test on RPMI-8226 leukemia was more than 100 µM; in the test on SW-620 colon, more than 59.1 µM; in the test on OVCAR-3 ovarian, 28 µM; in the test with DU-145 prostate, 27.3 µM; in the test on SK-MEL-28 melanoma it was 25.2 µM; in the test on UACC-62 melanoma it was 44.2 µM. Besides, the GI50 with BT-549 breast was 24.1 µM; in the test with MDA-MB-435, more than 81.6 µM; in the test on EKVX NSCLC, 19.9 µM; in the test on HOP-62 NSCLC, 19.8 µM. Moreover, the TGI was more than 100 µM with RPMI-8226 leukemia; more than 100 µM with SW-620 colon; more than 75.1 µM with OVCAR-3 ovarian; more than 75.8 µM in the test with DU-145 prostate; 80.6 µM in the test on SK-MEL-28 melanoma; more than 100 µM in the test with UACC-62 melanoma. Also, the TGI was 59.8 µM in the test with BT-549 breast, more than 100 µM in the test with MDA-MB-435, more than 69.6 µM with EKVX NSCLC and 46.3 µM in the test with HOP-62 NSCLC.
For the compound `O=C1C(=O)c2ccccc2C(O)=C1CCCc1ccc(C2CCCC2)cc1`, the GI50 with RPMI-8226 leukemia was 2.66 µM; in the test on SW-620 colon, 4.87 µM; in the test on OVCAR-3 ovarian, 4.91 µM; in the test with DU-145 prostate, 6.9 µM; in the test on SK-MEL-28 melanoma it was 7.69 µM; with UACC-62 melanoma, 3.73 µM. For the same compound, the GI50 is 10.5 µM in the test with BT-549 breast, 5.1 µM with MDA-MB-435, 11.7 µM in the test on EKVX NSCLC and 8.04 µM in the test on HOP-62 NSCLC. In addition, the TGI is 6.94 µM with RPMI-8226 leukemia; 17.1 µM in the test with SW-620 colon; 20.1 µM in the test with OVCAR-3 ovarian; 54.9 µM with DU-145 prostate; 40.1 µM in the test on SK-MEL-28 melanoma; 18.5 µM with UACC-62 melanoma. For the same compound, the TGI was determined as 48.6 µM in the test on BT-549 breast, 38.8 µM with MDA-MB-435, 64.7 µM in the test on EKVX NSCLC and 23.6 µM in the test on HOP-62 NSCLC.
Regarding `COC(=O)c1ccc2c(c1)C(=O)c1c-2n(C)c(=O)c2cc(OC)c(OC)cc12`, the GI50 is more than 50 µM in the test on RPMI-8226 leukemia; more than 50 µM in the test on SW-620 colon; 44.6 µM in the test with OVCAR-3 ovarian; more than 50 µM with DU-145 prostate; more than 50 µM in the test on SK-MEL-28 melanoma; more than 50 µM with UACC-62 melanoma. Besides, the GI50 was more than 50 µM in the test on BT-549 breast, more than 50 µM in the test with MDA-MB-435, more than 50 µM with EKVX NSCLC and 17.7 µM with HOP-62 NSCLC. Besides, the TGI in the test on RPMI-8226 leukemia, with SW-620 colon, in the test with OVCAR-3 ovarian, in the test on DU-145 prostate, in the test on SK-MEL-28 melanoma and in the test on UACC-62 melanoma was more than 50 µM each time. Moreover, the total growth inhibition concentration (TGI) in the test on BT-549 breast, with MDA-MB-435, with EKVX NSCLC and in the test with HOP-62 NSCLC was more than 50 µM in each case.
For `NS(=O)(=O)c1ccc(NCc2cnc3ccccc3n2)cc1`, the TGI with RPMI-8226 leukemia, in the test with SW-620 colon, with OVCAR-3 ovarian, in the test on DU-145 prostate, with SK-MEL-28 melanoma and in the test on UACC-62 melanoma was more than 100 µM throughout. The TGI in the test on BT-549 breast, with MDA-MB-435, in the test on EKVX NSCLC and with HOP-62 NSCLC was more than 100 µM in each case.
`C=C1COC(O)(C2OCOC(C3CC(=O)NC(=O)C3)C2O)C1C` (configuration not stated): the GI50 with RPMI-8226 leukemia is 0.00236 µM; in the test on SW-620 colon it was 0.00288 µM; in the test on DU-145 prostate, 0.0125 µM; with SK-MEL-28 melanoma, 0.00222 µM; in the test on UACC-62 melanoma it was 0.00275 µM and 0.0134 µM; in the test with BT-549 breast it was 0.0187 µM. Also, the figures for the GI50 in the test on MDA-MB-435, with EKVX NSCLC and in the test on HOP-62 NSCLC were 0.00481 µM, 0.00507 µM and 0.00277 µM, respectively. The TGI in the test with RPMI-8226 leukemia was 0.0063 µM and 0.0127 µM and 0.0451 µM; with SW-620 colon, 0.042 µM and 0.142 µM; in the test with OVCAR-3 ovarian it was 0.046 µM; in the test with DU-145 prostate, 0.0616 µM; in the test on SK-MEL-28 melanoma, 0.0377 µM; with UACC-62 melanoma, 0.0247 µM and 0.131 µM. Besides, the TGI in the test with BT-549 breast is 0.0739 µM; with MDA-MB-435 it was 0.037 µM; in the test with EKVX NSCLC it was 0.04 µM and 0.266 µM; in the test with HOP-62 NSCLC, 0.0357 µM and 0.0382 µM.
Regarding `O=c1c2cccc(F)c2sc2c(N3CCNCC3)nc3ccccc3c12`, the GI50 with RPMI-8226 leukemia is 1.69 µM; in the test on SW-620 colon, 0.974 µM; with OVCAR-3 ovarian it was 1.59 µM; in the test on DU-145 prostate, 1.4 µM; in the test with SK-MEL-28 melanoma, 1.88 µM; in the test with UACC-62 melanoma, 1.66 µM. The GI50 in the test on BT-549 breast is 1.58 µM; with MDA-MB-435, 1.74 µM; in the test with EKVX NSCLC it was 1.59 µM; with HOP-62 NSCLC, 1.38 µM. Besides, the concentration for total growth inhibition (TGI) in the test on RPMI-8226 leukemia amounted to 3.73 µM; in the test on SW-620 colon it was 2.28 µM; in the test with OVCAR-3 ovarian it was 3.04 µM; in the test on DU-145 prostate, 2.76 µM; in the test with SK-MEL-28 melanoma, 3.35 µM; with UACC-62 melanoma it was 3.16 µM. In addition, the TGI with BT-549 breast was 3.06 µM; in the test with MDA-MB-435, 3.2 µM; with EKVX NSCLC, 2.99 µM; in the test with HOP-62 NSCLC, 3.1 µM.

(Values after PubChem BioAssay (NCI).)
